Results published in patent publication US20080009418A1, “Selective Inhibitors” (Alchemia LTD., priority 2004, published 2008).

Columns and labels:
Human μ-opioid (MOP) = biological target: T1, Human μ-opioid (MOP) (Homo sapiens, UniProt P35372); test: Radioligand binding, human μ-opioid (MOP) membranes, FlashPlate, [3H]-Naloxone; conditions: compound at 10 μM; [3H]-Naloxone
T1 construct: purchased Perkin Elmer Biosignal
Procedure, shortened: (§1)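 Cloned human receptor membranes were coated onto FlashPlate wells and incubated with radioligand and compound (added from a 0.5 mM DMSO daughter plate) for 1 hour at room temperature in the dark. Scintillation counting gave percent inhibition, with DMSO defining total and reference ligand defining non-specific binding.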

Human κ-Opioid (KOP) = biological target: T2, Human κ-Opioid (KOP) (Homo sapiens, UniProt P41145); test: Radioligand binding, human κ-opioid (KOP) membranes, filtration, [3H]-Diprenorphine; conditions: compound at 10 μM; [3H]-Diprenorphine
T2 construct: purchased Perkin Elmer Biosignal
T2 sequence (P41145 whole entry): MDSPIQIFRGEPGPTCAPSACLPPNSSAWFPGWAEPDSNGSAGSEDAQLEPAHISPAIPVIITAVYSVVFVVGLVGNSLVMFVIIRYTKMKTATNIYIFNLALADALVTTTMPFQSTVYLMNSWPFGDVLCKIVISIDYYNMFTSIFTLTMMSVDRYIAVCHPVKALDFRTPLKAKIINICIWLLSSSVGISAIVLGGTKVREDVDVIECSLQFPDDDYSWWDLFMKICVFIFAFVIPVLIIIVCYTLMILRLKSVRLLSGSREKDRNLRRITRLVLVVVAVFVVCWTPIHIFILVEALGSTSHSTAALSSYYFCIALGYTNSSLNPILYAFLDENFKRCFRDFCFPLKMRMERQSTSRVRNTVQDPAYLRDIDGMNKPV
Procedure, shortened: (§2)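 Filtration binding on cloned human receptor membranes (1 Unit/well), [125I]-Substance P for NK1 and [3H]-Diprenorphine for KOP, 1 h at room temperature. Filters PEI-presoaked, washed with cold 50 mM Tris-HCl pH 7.4, counted by scintillation; percent inhibition calculated, reference ligand defining non-specific binding.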

Human δ-opioid (DOP) = biological target: T3, Human δ-opioid (DOP) (Homo sapiens, UniProt P41143); test: Radioligand binding, human δ-opioid (DOP) membranes, FlashPlate, [3H]-Bremazocine; conditions: compound at 10 μM; [3H]-Bremazocine
T3 construct: purchased Perkin Elmer Biosignal
T3 sequence (P41143 whole entry): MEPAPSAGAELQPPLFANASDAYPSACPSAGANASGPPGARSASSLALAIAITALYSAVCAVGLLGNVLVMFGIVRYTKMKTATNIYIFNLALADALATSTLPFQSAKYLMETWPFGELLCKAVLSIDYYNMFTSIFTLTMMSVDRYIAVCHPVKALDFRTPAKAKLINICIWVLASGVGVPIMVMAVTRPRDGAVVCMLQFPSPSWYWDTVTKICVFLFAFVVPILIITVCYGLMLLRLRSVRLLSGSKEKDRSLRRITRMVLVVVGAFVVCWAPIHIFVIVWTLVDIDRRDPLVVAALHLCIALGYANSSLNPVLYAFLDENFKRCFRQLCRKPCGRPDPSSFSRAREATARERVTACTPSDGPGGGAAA
Procedure, shortened: as §1

Mouse urotensin (mUR2) = biological target: T4, Mouse urotensin (mUR2) (Mus musculus, UniProt Q8VIH9); test: Radioligand binding, mouse urotensin mUR2 membranes, FlashPlate, [125I]-Urotensin II; conditions: compound at 10 μM; [125I]-Urotensin II
T4 construct: purchased Perkin Elmer Biosignal
T4 sequence (Q8VIH9 1-385): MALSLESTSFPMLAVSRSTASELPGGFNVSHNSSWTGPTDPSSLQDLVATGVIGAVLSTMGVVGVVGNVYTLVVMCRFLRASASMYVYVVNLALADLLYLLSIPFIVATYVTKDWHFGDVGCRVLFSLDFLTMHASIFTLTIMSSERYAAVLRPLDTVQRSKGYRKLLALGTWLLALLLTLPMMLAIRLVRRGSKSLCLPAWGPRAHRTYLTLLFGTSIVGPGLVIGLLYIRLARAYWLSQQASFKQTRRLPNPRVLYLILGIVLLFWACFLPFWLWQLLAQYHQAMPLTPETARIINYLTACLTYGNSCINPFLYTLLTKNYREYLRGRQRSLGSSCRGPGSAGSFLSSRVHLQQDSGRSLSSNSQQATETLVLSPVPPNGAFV
Procedure, shortened: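 Cloned mouse urotensin (mUR2) receptor membranes from Perkin Elmer Biosignal were immobilized in FlashPlate microplates using a proprietary coating. Each well got 19.5 μl buffer, then 0.5 μl of DMSO, reference ligand, or compound. Adding 5 μl of [125I]-Urotensin II, diluted to 5× final concentration in binding buffer, started binding. Plates were sealed with TopSeal-A and incubated 1 hour at room temperature in the dark. Wells were counted for 30 seconds each on a TopCount after a 60-second delay, and percentage inhibition was calculated.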

Human Melanocortin (MC3) = biological target: T5, Human Melanocortin (MC3) (Homo sapiens, UniProt P41968); test: Radioligand binding, human melanocortin MC3 membranes, FlashPlate, [125I]-NDP-αMSH; conditions: compound at 10 μM, [125I]-NDP-αMSH
T5 construct: purchased Perkin Elmer Biosignal
T5 sequence (P41968 whole entry): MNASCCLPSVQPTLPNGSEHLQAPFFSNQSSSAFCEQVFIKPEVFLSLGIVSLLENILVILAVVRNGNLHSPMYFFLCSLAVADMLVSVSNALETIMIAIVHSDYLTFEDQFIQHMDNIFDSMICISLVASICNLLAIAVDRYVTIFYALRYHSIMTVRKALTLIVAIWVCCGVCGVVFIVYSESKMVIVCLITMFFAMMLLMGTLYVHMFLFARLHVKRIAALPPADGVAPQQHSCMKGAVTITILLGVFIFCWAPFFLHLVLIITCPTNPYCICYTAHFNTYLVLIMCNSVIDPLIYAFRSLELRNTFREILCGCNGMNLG
Procedure, shortened: as §1

[1] = biological target: T6, Human neuropeptide Y (NPY-Y1) (Homo sapiens, UniProt P25929); test: Radioligand binding, human neuropeptide Y NPY-Y1 membranes, FlashPlate, [125I]-PYY; conditions: compound at 10 μM; [125I]-PYY
T6 construct: purchased Perkin Elmer Biosignal
T6 sequence (P25929 1-384): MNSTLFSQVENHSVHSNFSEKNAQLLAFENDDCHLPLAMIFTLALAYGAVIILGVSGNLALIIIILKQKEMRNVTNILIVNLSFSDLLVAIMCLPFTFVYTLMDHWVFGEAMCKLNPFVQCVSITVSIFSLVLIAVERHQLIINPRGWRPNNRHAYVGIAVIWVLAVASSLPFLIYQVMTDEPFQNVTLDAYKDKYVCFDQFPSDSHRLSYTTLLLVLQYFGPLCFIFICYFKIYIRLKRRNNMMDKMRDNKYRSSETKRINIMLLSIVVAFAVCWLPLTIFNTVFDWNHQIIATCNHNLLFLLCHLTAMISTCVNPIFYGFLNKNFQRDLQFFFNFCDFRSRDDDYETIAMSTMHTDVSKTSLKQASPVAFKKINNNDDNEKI
Procedure, shortened: as §1

Human melanocortin (MC5) = biological target: T7, Human melanocortin (MC5) (Homo sapiens, UniProt P33032); test: Radioligand binding, human melanocortin MC5 membranes, FlashPlate, [125I]-NDP-αMSH; conditions: compound at 10 μM, [125I]-NDP-αMSH
T7 construct: purchased Perkin Elmer Biosignal
T7 sequence (P33032 whole entry): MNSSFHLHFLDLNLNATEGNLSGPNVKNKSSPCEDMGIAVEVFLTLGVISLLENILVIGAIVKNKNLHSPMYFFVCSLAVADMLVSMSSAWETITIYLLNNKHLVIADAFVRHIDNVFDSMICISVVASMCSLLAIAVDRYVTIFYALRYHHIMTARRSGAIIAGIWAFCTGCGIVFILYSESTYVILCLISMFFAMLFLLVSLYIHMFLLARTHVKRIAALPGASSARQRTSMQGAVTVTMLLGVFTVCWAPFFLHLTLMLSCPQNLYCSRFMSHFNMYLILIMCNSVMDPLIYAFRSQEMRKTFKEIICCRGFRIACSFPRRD
Procedure, shortened: as §1

[2] = biological target: T8, Human melanin-concentrating hormone (MCH1) (Homo sapiens, UniProt Q99705); test: Radioligand binding, human melanin-concentrating hormone MCH1 membranes, FlashPlate, [125I]-S36057; conditions: compound at 10 μM, [125I]-S36057
T8 construct: purchased Perkin Elmer Biosignal
T8 sequence (Q99705 whole entry): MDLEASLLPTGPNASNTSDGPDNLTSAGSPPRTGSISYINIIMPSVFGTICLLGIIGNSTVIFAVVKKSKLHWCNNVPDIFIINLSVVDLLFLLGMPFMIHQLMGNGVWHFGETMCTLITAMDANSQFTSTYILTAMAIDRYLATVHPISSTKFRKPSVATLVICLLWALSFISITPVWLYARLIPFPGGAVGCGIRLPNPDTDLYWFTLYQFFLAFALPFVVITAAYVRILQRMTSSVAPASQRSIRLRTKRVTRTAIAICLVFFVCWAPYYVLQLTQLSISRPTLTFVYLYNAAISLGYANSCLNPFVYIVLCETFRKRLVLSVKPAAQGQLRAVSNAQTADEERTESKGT
Procedure, shortened: as §1

Human neurokinin (NK1) = biological target: T9, Human neurokinin (NK1) (Homo sapiens, UniProt P25103); test: Radioligand binding, human neurokinin NK1 membranes, filtration, [125I]-Substance P; conditions: compound at 10 μM; [125I]-Substance P
T9 construct: purchased Perkin Elmer Biosignal
T9 sequence (P25103 whole entry): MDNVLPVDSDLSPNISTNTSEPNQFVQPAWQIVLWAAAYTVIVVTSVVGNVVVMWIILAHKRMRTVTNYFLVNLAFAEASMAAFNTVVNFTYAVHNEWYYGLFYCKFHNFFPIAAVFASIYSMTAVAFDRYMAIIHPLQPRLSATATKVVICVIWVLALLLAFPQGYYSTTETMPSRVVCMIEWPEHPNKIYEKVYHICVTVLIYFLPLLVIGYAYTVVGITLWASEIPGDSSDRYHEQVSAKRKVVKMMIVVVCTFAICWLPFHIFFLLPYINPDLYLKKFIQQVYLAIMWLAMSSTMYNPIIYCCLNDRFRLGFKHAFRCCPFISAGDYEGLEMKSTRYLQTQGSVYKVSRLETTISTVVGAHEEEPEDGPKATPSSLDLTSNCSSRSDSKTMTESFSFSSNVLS
Procedure, shortened: as §2

Human opioid (ORL1) = biological target: T10, Human opioid (ORL1) (Homo sapiens, UniProt P41146); test: Radioligand binding, human opioid ORL1 membranes, FlashPlate, [125I]-Nociceptin; conditions: compound at 10 μM; [125I]-Nociceptin
T10 construct: purchased Perkin Elmer Biosignal
T10 sequence (P41146 whole entry): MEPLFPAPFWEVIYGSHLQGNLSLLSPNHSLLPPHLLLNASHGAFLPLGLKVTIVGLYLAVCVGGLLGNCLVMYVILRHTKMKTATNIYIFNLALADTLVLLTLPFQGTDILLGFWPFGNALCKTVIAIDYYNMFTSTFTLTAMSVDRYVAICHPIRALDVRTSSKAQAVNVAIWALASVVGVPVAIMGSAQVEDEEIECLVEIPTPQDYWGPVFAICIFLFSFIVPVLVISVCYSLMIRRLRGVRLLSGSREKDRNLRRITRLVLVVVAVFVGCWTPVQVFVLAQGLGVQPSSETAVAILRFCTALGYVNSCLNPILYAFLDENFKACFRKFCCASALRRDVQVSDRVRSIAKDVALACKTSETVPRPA
Procedure, shortened: as §1

Human Melanocortin (MC4) = biological target: T11, Human Melanocortin (MC4) (Homo sapiens, UniProt P32245); test: Radioligand binding, human melanocortin MC4 membranes, FlashPlate, [125I]-NDP-αMSH; conditions: compound at 10 μM, [125I]-NDP-αMSH
T11 construct: purchased Perkin Elmer Biosignal
T11 sequence (P32245 whole entry): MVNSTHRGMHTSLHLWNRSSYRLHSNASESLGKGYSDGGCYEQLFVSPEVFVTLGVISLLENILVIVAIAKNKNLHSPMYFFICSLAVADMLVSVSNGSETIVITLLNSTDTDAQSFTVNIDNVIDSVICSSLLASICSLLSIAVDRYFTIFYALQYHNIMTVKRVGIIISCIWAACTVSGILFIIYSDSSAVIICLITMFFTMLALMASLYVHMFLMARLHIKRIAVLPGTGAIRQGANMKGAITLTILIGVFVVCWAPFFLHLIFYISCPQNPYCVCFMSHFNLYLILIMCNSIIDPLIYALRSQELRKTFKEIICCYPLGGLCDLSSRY
Procedure, shortened: as §1

T1 sequence (P35372 whole entry): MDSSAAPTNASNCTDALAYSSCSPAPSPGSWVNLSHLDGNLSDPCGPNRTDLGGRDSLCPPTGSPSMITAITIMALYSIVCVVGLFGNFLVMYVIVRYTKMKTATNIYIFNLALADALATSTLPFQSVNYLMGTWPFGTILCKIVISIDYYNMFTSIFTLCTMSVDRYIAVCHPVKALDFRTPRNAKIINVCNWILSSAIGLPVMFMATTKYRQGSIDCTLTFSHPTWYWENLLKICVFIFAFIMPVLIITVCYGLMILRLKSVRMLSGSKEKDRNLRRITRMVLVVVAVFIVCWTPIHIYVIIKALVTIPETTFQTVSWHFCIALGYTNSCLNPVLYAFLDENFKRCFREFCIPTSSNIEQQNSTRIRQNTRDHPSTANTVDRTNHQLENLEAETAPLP

NCCCC(=O)NC1C(OCc2ccc(Cl)cc2)OC(COCc2ccccc2)C(O)C1OCc1ccc(Cl)cc1 (single isomer, unassigned) [compound 492]
A7: inhibition of radioligand binding, human μ-opioid (MOP) (Human μ-opioid (MOP)): − (“−” indicates less than 50% inhibition at 10 μM) | A2: inhibition of radioligand binding, human κ-opioid (KOP) (Human κ-Opioid (KOP)): − (“−” indicates less than 50% inhibition at 10 μM) | A1: inhibition of radioligand binding, human δ-opioid (DOP) (Human δ-opioid (DOP)): − (“−” indicates less than 50% inhibition at 10 μM) | A11: inhibition of radioligand binding, mouse urotensin (mUR2) (Mouse urotensin (mUR2)): − (“−” indicates less than 50% inhibition at 10 μM) | A3: inhibition of radioligand binding, human melanocortin (MC3) (Human Melanocortin (MC3)): − (“−” indicates less than 50% inhibition at 10 μM) | A9: inhibition of radioligand binding, human neuropeptide Y (NPY-Y1) [1]: − (“−” indicates less than 50% inhibition at 10 μM) | A5: inhibition of radioligand binding, human melanocortin (MC5) (Human melanocortin (MC5); 10 µM): + (“+” indicates greater than 50% inhibition at 10 μM) | A6: inhibition of radioligand binding, human melanin-concentrating hormone (MCH1) ([2]; 10 µM): + (“+” indicates greater than 50% inhibition at 10 μM) | A8: inhibition of radioligand binding, human neurokinin (NK1) (Human neurokinin (NK1)): + (“+” indicates greater than 50% inhibition at 10 μM) | A10: inhibition of radioligand binding, human opioid (ORL1) (Human opioid (ORL1)): + (“+” indicates greater than 50% inhibition at 10 μM) | A4: inhibition of radioligand binding, human melanocortin (MC4) (Human Melanocortin (MC4); 10 µM): + (“+” indicates greater than 50% inhibition at 10 μM)

NCCCC(=O)NC1C(OCc2ccc(Cl)cc2)OC(COCc2ccc(Cl)cc2)C(O)C1OCc1ccc(Cl)cc1 (single isomer, unassigned) [compound 493]
A7: inhibition of radioligand binding, human μ-opioid (MOP) (Human μ-opioid (MOP)): − (“−” indicates less than 50% inhibition at 10 μM) | A2: inhibition of radioligand binding, human κ-opioid (KOP) (Human κ-Opioid (KOP)): − (“−” indicates less than 50% inhibition at 10 μM) | A1: inhibition of radioligand binding, human δ-opioid (DOP) (Human δ-opioid (DOP)): − (“−” indicates less than 50% inhibition at 10 μM) | A11: inhibition of radioligand binding, mouse urotensin (mUR2) (Mouse urotensin (mUR2)): − (“−” indicates less than 50% inhibition at 10 μM) | A3: inhibition of radioligand binding, human melanocortin (MC3) (Human Melanocortin (MC3); 10 µM): − (“−” indicates less than 50% inhibition at 10 μM) | A9: inhibition of radioligand binding, human neuropeptide Y (NPY-Y1) [1]: − (“−” indicates less than 50% inhibition at 10 μM) | A5: inhibition of radioligand binding, human melanocortin (MC5) (Human melanocortin (MC5)): + (“+” indicates greater than 50% inhibition at 10 μM) | A6: inhibition of radioligand binding, human melanin-concentrating hormone (MCH1) [2]: + (“+” indicates greater than 50% inhibition at 10 μM) | A8: inhibition of radioligand binding, human neurokinin (NK1) (Human neurokinin (NK1)): + (“+” indicates greater than 50% inhibition at 10 μM) | A10: inhibition of radioligand binding, human opioid (ORL1) (Human opioid (ORL1)): + (“+” indicates greater than 50% inhibition at 10 μM) | A4: inhibition of radioligand binding, human melanocortin (MC4) (Human Melanocortin (MC4)): + (“+” indicates greater than 50% inhibition at 10 μM)

NCCCC(=O)NC1C(OCc2ccc(Cl)cc2)OC(COCc2ccc(Cl)cc2)C(O)C1OCc1ccc(Cl)cc1 (single isomer, unassigned) [compound 494]
A7: inhibition of radioligand binding, human μ-opioid (MOP) (Human μ-opioid (MOP)): − (“−” indicates less than 50% inhibition at 10 μM) | A2: inhibition of radioligand binding, human κ-opioid (KOP) (Human κ-Opioid (KOP)): − (“−” indicates less than 50% inhibition at 10 μM) | A1: inhibition of radioligand binding, human δ-opioid (DOP) (Human δ-opioid (DOP)): − (“−” indicates less than 50% inhibition at 10 μM) | A11: inhibition of radioligand binding, mouse urotensin (mUR2) (Mouse urotensin (mUR2)): − (“−” indicates less than 50% inhibition at 10 μM) | A3: inhibition of radioligand binding, human melanocortin (MC3) (Human Melanocortin (MC3); 10 µM): + (“+” indicates greater than 50% inhibition at 10 μM) | A9: inhibition of radioligand binding, human neuropeptide Y (NPY-Y1) [1]: − (“−” indicates less than 50% inhibition at 10 μM) | A5: inhibition of radioligand binding, human melanocortin (MC5) (Human melanocortin (MC5)): + (“+” indicates greater than 50% inhibition at 10 μM) | A6: inhibition of radioligand binding, human melanin-concentrating hormone (MCH1) [2]: + (“+” indicates greater than 50% inhibition at 10 μM) | A8: inhibition of radioligand binding, human neurokinin (NK1) (Human neurokinin (NK1)): + (“+” indicates greater than 50% inhibition at 10 μM) | A10: inhibition of radioligand binding, human opioid (ORL1) (Human opioid (ORL1)): + (“+” indicates greater than 50% inhibition at 10 μM) | A4: inhibition of radioligand binding, human melanocortin (MC4) (Human Melanocortin (MC4)): + (“+” indicates greater than 50% inhibition at 10 μM)

NCCCC(=O)NC1C(OCc2ccc(Cl)cc2)OC(COCc2ccc3ccccc3c2)C(O)C1OCc1ccc2ccccc2c1 (single isomer, unassigned) [compound 495]
A7: inhibition of radioligand binding, human μ-opioid (MOP) (Human μ-opioid (MOP)): + (“+” indicates greater than 50% inhibition at 10 μM) | A2: inhibition of radioligand binding, human κ-opioid (KOP) (Human κ-Opioid (KOP)): − (“−” indicates less than 50% inhibition at 10 μM) | A1: inhibition of radioligand binding, human δ-opioid (DOP) (Human δ-opioid (DOP)): − (“−” indicates less than 50% inhibition at 10 μM) | A11: inhibition of radioligand binding, mouse urotensin (mUR2) (Mouse urotensin (mUR2)): − (“−” indicates less than 50% inhibition at 10 μM) | A3: inhibition of radioligand binding, human melanocortin (MC3) (Human Melanocortin (MC3)): + (“+” indicates greater than 50% inhibition at 10 μM) | A9: inhibition of radioligand binding, human neuropeptide Y (NPY-Y1) [1]: − (“−” indicates less than 50% inhibition at 10 μM) | A5: inhibition of radioligand binding, human melanocortin (MC5) (Human melanocortin (MC5)): + (“+” indicates greater than 50% inhibition at 10 μM) | A6: inhibition of radioligand binding, human melanin-concentrating hormone (MCH1) [2]: + (“+” indicates greater than 50% inhibition at 10 μM) | A8: inhibition of radioligand binding, human neurokinin (NK1) (Human neurokinin (NK1)): + (“+” indicates greater than 50% inhibition at 10 μM) | A10: inhibition of radioligand binding, human opioid (ORL1) (Human opioid (ORL1)): + (“+” indicates greater than 50% inhibition at 10 μM) | A4: inhibition of radioligand binding, human melanocortin (MC4) (Human Melanocortin (MC4)): + (“+” indicates greater than 50% inhibition at 10 μM)

NCCCC(=O)NC1C(OCc2ccc(Cl)cc2)OC(COCc2ccc3ccccc3c2)C(O)C1OCc1ccc2ccccc2c1 (single isomer, unassigned) [compound 496]
A7: inhibition of radioligand binding, human μ-opioid (MOP) (Human μ-opioid (MOP)): + (“+” indicates greater than 50% inhibition at 10 μM) | A2: inhibition of radioligand binding, human κ-opioid (KOP) (Human κ-Opioid (KOP)): − (“−” indicates less than 50% inhibition at 10 μM) | A1: inhibition of radioligand binding, human δ-opioid (DOP) (Human δ-opioid (DOP)): − (“−” indicates less than 50% inhibition at 10 μM) | A11: inhibition of radioligand binding, mouse urotensin (mUR2) (Mouse urotensin (mUR2)): − (“−” indicates less than 50% inhibition at 10 μM) | A3: inhibition of radioligand binding, human melanocortin (MC3) (Human Melanocortin (MC3)): + (“+” indicates greater than 50% inhibition at 10 μM) | A9: inhibition of radioligand binding, human neuropeptide Y (NPY-Y1) [1]: − (“−” indicates less than 50% inhibition at 10 μM) | A5: inhibition of radioligand binding, human melanocortin (MC5) (Human melanocortin (MC5)): + (“+” indicates greater than 50% inhibition at 10 μM) | A6: inhibition of radioligand binding, human melanin-concentrating hormone (MCH1) [2]: + (“+” indicates greater than 50% inhibition at 10 μM) | A8: inhibition of radioligand binding, human neurokinin (NK1) (Human neurokinin (NK1)): + (“+” indicates greater than 50% inhibition at 10 μM) | A10: inhibition of radioligand binding, human opioid (ORL1) (Human opioid (ORL1)): + (“+” indicates greater than 50% inhibition at 10 μM) | A4: inhibition of radioligand binding, human melanocortin (MC4) (Human Melanocortin (MC4)): + (“+” indicates greater than 50% inhibition at 10 μM)
